Test results reported in patent US20130171273A1, “METHOD OF TREATING IMPAIRED WOUND HEALING IN DIABETICS” (KUWAIT UNIVERSITY, priority 2011, published 2013).
Where “and” joins values, the source holds several entries; their conditions need not be identical. Equal entries are not always repeated. Where two headings read alike, the source gives them in different places.

How the values were obtained:
Nrf2 [1] = assay: Nuclear accumulation of Nrf2 in diabetic fibroblasts (subcellular fractionation, Western blot); assay type: cell-based, rat; settings: for nuclear accumulation of Nrf2: DFs, OS-inducing agent, compared with CFs, FIG. 3D
Experimental: To quantify responses to oxidative stress activators, fibroblasts of control and of type 2 diabetes were treated with vehicle or the OS-inducing agents ‘t-butylhydroquinone (tBHQ, 100 μM, Sigma) or oligomycin (15 μM, Sigma) for 16 h. The Cells were processed for total RNA extraction or western blotting analysis as outlined below. Both of these compounds were dissolved in ethanol with a final concentration of 0.01%. […] To analyze protein expression and phosphorylation, cells were seeded in 6-well plates and treated as described above. They were washed with ice-cold PBS, scraped into PBS, and centrifuged at 1000 rpm for 5 min. The cell pellet was then subjected to subcellular fractionation. To make the total cell lysate, the cells were lysed with RIPA buffer supplemented with a protease inhibitor mixture and a phosphatase inhibitor mixture. The protein concentration was determined using BCA protein assay reagents (Pierce). Fifty micrograms of total cell lysate (or cytosolic, or nuclear) fractions were resolved on a 10% SDS-polyacrylamide gel, Western blotted, and probed with antibodies specific for Nrf2, Kcap1 or Fyn (all from Santa Cruz) or GSK-3β, GSK-3β-phosho-Ser9 (P-GSK3-β, and phosphor GSK-α/-β (pTyr279/pTyr216) (Cell Signaling). The purity of the subcellular fractions was confirmed using the anti-LDH antibody (Chemieon International) and the anti-PCNA antibody (Santa Cruz) for cytosolic and nuclear fractions, respectively. The levels of protein on a Western blot were assessed using Quantity One Image software (Bio-Rad) and normalized against suitable loading controls, including anti-β-actin antibody for total and cytosolic fractions and anti-PCNA antibody for the nuclear fraction.

Nrf2 [2] = assay: Nuclear accumulation of Nrf2 in control fibroblasts (subcellular fractionation, Western blot); assay type: cell-based, rat; settings: CFs, OS-inducing agent, FIG. 3D
Experimental: (§1) To quantify responses to oxidative stress activators, fibroblasts of control and of type 2 diabetes were treated with vehicle or the OS-inducing agents ‘t-butylhydroquinone (tBHQ, 100 μM, Sigma) or oligomycin (15 μM, Sigma) for 16 h. The Cells were processed for total RNA extraction or western blotting analysis as outlined below. Both of these compounds were dissolved in ethanol with a final concentration of 0.01%. […] To analyze protein expression and phosphorylation, cells were seeded in 6-well plates and treated as described above. They were washed with ice-cold PBS, scraped into PBS, and centrifuged at 1000 rpm for 5 min. The cell pellet was then subjected to subcellular fractionation. To make the total cell lysate, the cells were lysed with RIPA buffer supplemented with a protease inhibitor mixture and a phosphatase inhibitor mixture. The protein concentration was determined using BCA protein assay reagents (Pierce). […]

[3] = test system: control fibroblasts (CFs); assay: mRNA of Nrf2-regulated genes by real-time PCR in control fibroblasts; assay type: cell-based, rat
Experimental: (§2) To quantify responses to oxidative stress activators, fibroblasts of control and of type 2 diabetes were treated with vehicle or the OS-inducing agents ‘t-butylhydroquinone (tBHQ, 100 μM, Sigma) or oligomycin (15 μM, Sigma) for 16 h. The Cells were processed for total RNA extraction or western blotting analysis as outlined below. Both of these compounds were dissolved in ethanol with a final concentration of 0.01%. […] To measure transcription of Nrf2 target genes and NADPH oxidase genes, RNA (1 μg) was isolated from cultured fibroblasts using Trizol reagent (Invitrogen) and reverse transcribed for 1 h at 37° C. using the High Capacity cDNA Reverse Transcription Kit. Real-time quantitative RT-PCR was performed with the TaqMan Gene Expression Assay and was normalized against 18S RNA using an ABI 7900 Real-time PCR System (Applied Biosystems). Primers and probes were designed by and purchased from Applied Biosystems. Primer efficiency and specificity were verified by amplifying standard dilutions of a probe obtained by pooling all the samples and by melting curve analysis, respectively.

[4] = test system: control fibroblasts (CFs); assay: Caspase-3-like activity (Apo-ONE caspase-3/7 assay), control fibroblasts; assay type: cell-based, rat
Experimental: (§3) To quantify relative cell death in control and diabetic fibroblasts, cells were seeded at 1×10^4 cells/well on a 96-well plate. After a 24 h incubation period, the cells were exposed to various concentrations of HP in serum-free medium at 37° C. for 2 h [lactate dehydrogenase (LDH), a marker for necrotic cell death] or for 16 h (cell viability and apoptosis assay). Quantification of cell viability and caspase-3-like activity was achieved using a Cell Counting Kit-8 (Dojindo, Kumamoto, Japan) and an Apo-ONE homogenous caspase-3/7 assay (Promega), respectively. The values obtained were normalized to the vehicle-treated cells. To measure the rate of necrotic cell death, a LDH release assay was performed using a CytoTox-ONE Homogeneous Membrane Integrity Assay kit (Promega). In some experiments, cells were pre-incubated for 1 h with 2 μg of the ATPase inhibitor oligomycin before exposure to HP.

CFs and DFs = assay: Lipid peroxidation (DPPP fluorescence) in control and diabetic fibroblasts; assay type: cell-based, rat; settings: stressed CFs and DFs; markedly higher in diabetic than in control cells, FIG. 1E
Experimental: To measure lipid peroxidation and plasma membrane redox system (PMRS) enzymes, a total of 10-20 μg of purified plasma membrane protein in a butler containing 50 mM Tris at pH 7.6, 0.2 mM NADH, and 0.1% Triton X-100 was analyzed in the spectrophotometric determination (340 nm) of the activities of NADH CoQ and NADH-ascorbate free radical reductase [also known cytochrome b5 reductase, following the respective additions of coenzyme Q (0.2 mM) and fresh ascorbate (0.4 mM). NQO1 activity was measured at 550 nm in solution buffer containing 5 mM. Tris-HCl at pH 7.6, 0.2 mM NADPH, 0.1% Triton X-100, 10 μM menadione and 75 μM cytochrome c with or without dicoumarol. Calculation of the activity of NQO1 was based on the difference between the uninhibited and the dicoumarol-inhibited samples. Cells were assessed for lipid peroxidation using the diphenyl-1-pyrenylphosphine (DPPP, Invitrogen) fluorescence-based assay. […] The plate was read for DPPP fluorescence (excitation at 340 nm and emission at 405 nm) in a 96-well fluorescence plate reader. […]
To monitor whether the diabetes-induced elevation in intracellular levels of ROS may reflect an increase in lipid peroxidation, a marker of accumulative oxidative stress (OS), the lipid peroxide formation of CFs and DFs at baseline and under stressed conditions was measured using the dye DPPP, which intercalates and reacts with lipid hydroperoxides.

[5] = test system: control fibroblasts (CFs); settings: rat, 16 h
Experimental: as §3

[6] = test system: diabetic fibroblasts (DFs); settings: for loss in cell viability: rat, 16 h
Experimental: as §3

NADPH oxidase = assay: NADPH-dependent superoxide generation in membrane fractions (lucigenin chemiluminescence / SOD-inhibitable cytochrome c reduction); assay type: biochemical, rat; settings: membrane fractions of diabetic fibroblasts
Experimental: To study NADPH oxidase activity, cell pellets collected by trypsinization and suspended in 20 mM MOPS-KOH buffer, pH 7.4 containing 250 mM, 0.1 mM EDTA and a cocktail of protease inhibitors. The cells were disrupted by sonication on ice and the cell lysates were fractionated by centrifugation twice at 29,000×g for 15 min, discarding the supernatant each time. The pellet was resuspended in sucrose buffer and assayed for NADPH oxidase activity using lucigenin chemiluminescence or cytochrome c reduction-based assay. Briefly, membrane fractions (˜10 μg protein) were diluted in sucrose buffer/protease inhibitors and then lucigenin was added ((5 μM) in the presence or absence of 100 μM NADPH. The chemiluminescence was measured in 30 sec intervals over 5 min. The specificity of superoxide measured was confirmed by adding peg-SOD (10 units/ml). For the assessment of SOD-inhibitable cytochrome reduction, ˜100 μg membrane protein was added to a buffer containing cytochrome c (50 μM), NADPH (100 μM) and in the presence or absence of peg-SOD. After one hr, activity was measured as the SOD-inhibitable increase in absorbance at 550 nm (EmM=21). Assay conditions were established confirming the linearity of superoxide production with time and protein concentrations.
Following the procedures above, it was determined that superoxide generation over a 30-minute period was 55% higher in DFs relative to corresponding control values (FIG. 1A). This radical is a by-product of mitochondrial respiration and enzymatic oxidases. Accordingly, it was examined whether the observed elevation in superoxide stemmed from enhanced activity of the non-phagocytic NAD(P)H oxidase.

[7] = test system: diabetic fibroblasts (DFs); assay: Superoxide generation in diabetic fibroblasts (dihydroethidium fluorescence); assay type: cell-based, rat; settings: superoxide generation over a 30-minute period, FIG. 1A
Experimental: Primary rat fibroblasts were derived from dorsal skin biopsies performed on four diabetic Goto Kakizaki rats (DFs) and four age (12-14 months) and sex (female) matched Wistar control rats (CFs). After sterilization in povidine solution, the rat skin was washed in sterile water and rinsed in 70% ethanol in phosphate buffered saline (PBS). The epidermis and dermis were separated following overnight incubation in 0.25% Trypsin/EDTA at 4° C. Samples were washed, diced and digested for thirty min at 37° C. in collagenase type I (250 U/ml) dissolved in Dulbecco's modified Eagle medium (DMEM; Invitrogen) containing penicillin (100 U/ml), streptomycin (100 μg/ml), 2 mM L-glutamine and 26 mM HEPES. After collagenase treatment, the cells were dislodged, centrifuged and resuspended in medium supplemented with 10% fetal bovine serum. […]
To characterize oxidative conditions of cutaneous tissue, cells in 96-well plates were washed with Krebs Ringer buffer and then incubated at 37° C. in the presence of 10 μM of dihydroethidium (DHE, Molecular Probes). Fluorescence readings were taken at Ex 530 nm and Em=595 nm over a 30 min period. The determination of GSH (reduced glutathione) was achieved using the fluorescence probe monochlorobimane (MCB, Molecular Probes). Cells were incubated with 100 μl of […] MCB for 20 min at 37° C., and the fluorescence intensity was measured at Ex=390 nm and Em=460 nm. […]

[8] = test system: diabetic fibroblasts (DFs); assay: mRNA of Nrf2-regulated genes by real-time PCR in diabetic fibroblasts; assay type: cell-based, rat; settings: tBHQ treatment
Experimental: as §2

Nrf2 [9] = assay: Nrf2 level in total cell lysates (Western blot); assay type: cell-based, rat; settings: control and diabetic fibroblasts, to about the same extent, FIG. 3A
Experimental: as §1

[10] = CFs / normal fibroblasts, tBHQ treatment

CC[C@H]1/C=C/C=C/C[C@@H](C)[C@H](O)[C@@](C)(O)C(=O)[C@@H](C)[C@H](O)[C@@H](C)C(=O)[C@@H](C)[C@H](O)[C@@H](C)/C=C/C(=O)O[C@@H]2[C@H](C)[C@H](CC1)O[C@]1(CC[C@H](C)[C@H](C[C@@H](C)O)O1)[C@H]2C [oligomycin] was tested, and the “nuclear accumulation of Nrf2” value (Nrf2 [1]) was “far smaller increase”, the “Nrf2 in the nuclei-enriched fraction” value (Nrf2 [2]) was “markedly elevated” and the “expression of Mn-SOD, catalase, GSTP1, GCLC and NQO1 mRNA” value ([3]; CFs, oligomycin treatment, FIG. 3F) was “increase in the expression of Mn-SOD, catalase, GSTP1 and GCLC but not of NQO1”. For the same molecule, the “ability of HP to enhance caspase-3-like activities” value ([4]; CFs pre-treated with a 2-μg dose of oligomycin) was “suppresses”.
With CC(C)(C)OO [t-BHP] the “lipid peroxidation (DPPP fluorescence)” value (CFs and DFs) was “enhancement in lipid peroxidation”.
In the case of OO [HP, hydrogen peroxide], the “loss in cell viability” value ([5]; 37.5 μM) is reported as 6%, the “loss in cell viability” value ([5]; 50 μM) is reported as 22% and the “loss in cell viability” value ([5]; 75 μM) is reported as 53%. The “fold increase in caspase-3-like activity” value ([6]; 50 μM HP) was 5.4 fold, the “loss in cell viability” value ([6]; 37.5 μM) was 17% and the “loss in cell viability” value ([6]; 50 μM) was 55%. For the same molecule, the “loss in cell viability” value ([6]; 75 μM) was 78%, the “fold increase in caspase-3-like activity” value ([4]; controls (CFs), 50 μM HP) was 8.2 fold and the “lipid peroxidation (DPPP fluorescence)” value (CFs and DFs) was “enhancement in lipid peroxidation”.
COC(=O)[C@@H](N)CCCNC(=N)N[N+](=O)[O-] [L-NAME] was tested, and the “effect on superoxide production” value (NADPH oxidase) was “did not have a significant effect”.
With Cn1sc(=O)n(Cc2ccccc2)c1=O [TDZD-8, 4-benzyl-2-methyl-1,2,4-thiadiazolidine-3,5-dione] the “basal and inducible levels of nuclear Nrf2” value (Nrf2 [1]; DFs pretreated 8 h with lithium chloride 50 mM or TDZD-8 50 μM, FIG. 4B only shown for lithium) was “partially normalized”.
In the case of c1ccc(Cn2nnc3c(Sc4nc5ccccc5o4)ncnc32)cc1 [VAS2870], the “reduction of the diabetes-related increase in superoxide” value [7] is reported as “about 31%” and the “reduction of NADPH-dependent superoxide production (activity)” value (NADPH oxidase; FIG. 1B) is reported as “about 87%”.
Oc1ncnc2[nH]ncc12 [allopurinol] was tested, and the “effect on superoxide production” value (NADPH oxidase) was “did not have a significant effect”.
With CC(C)(C)c1cc(O)ccc1O [tBHQ, tert-butylhydroquinone] the “nuclear accumulation of Nrf2” value (Nrf2 [1]) was “far smaller increase”, the “Nrf2 in the nuclei-enriched fraction” value (Nrf2 [2]) was “markedly elevated” and the “increase of GCLC mRNA expression” value [3, 10] was 5-7 fold and 5.7 fold. For the same molecule, the “increase of GSTP1 mRNA expression” value [3, 10] was 5-7 fold and 6.3 fold, the “increase of NQO1 mRNA expression” value [3, 10] was 4-6 fold and 4.8 fold and the “increase of catalase mRNA expression” value [3, 10] was 7-10 fold and 8.8 fold. The “increase of GR mRNA expression” value ([3]; normal fibroblasts, tBHQ treatment) was 3-4 fold, the “levels of Cu/Zn SOD or Mn-SOD (SOD2) mRNA” value ([3]; tBHQ treatment, cell type not given) was “no observable changes” and the “percent increase of Nrf2-dependent transcripts (catalase, GSTP1, GCLC, NQO1)” value ([8]; DFs, FIG. 3E) was 32%-78%. The “upregulation of anti-oxidative enzymes” value ([8]; cells with overabundant oxidative stress and impaired Nrf2 response) was 1.5 to 2 fold and the “level of Nrf2 in total cell lysates” value (Nrf2 [9]) was “elevates”.
